What all share (format): in vivo
The subject of test [1] is winter oilseed rape (canola) (Brassica napus). Nature of the test: Postemergence herbicidal activity in oilseed rape (canola), crop. The arrangement: unit not given here. The note with it: visual rating after 21 d, probit analysis, dose to kill or control 20 percent. Here is the method: (§1) Seeds of oilseed rape (canola) and the desired weed species were planted in Sun Gro MetroMix® 360 planting mixture, which typically has a pH of 6.0 to 6.8 and an organic matter content of about 30 percent, in plastic pots with a surface area of 95 cm^2. When required to ensure good germination and healthy plants, a fungicide treatment and/or other chemical or physical treatment was applied. The plants were grown for 15-28 d in a greenhouse with an approximate 15-h photoperiod which was maintained at about 23-29° C. during the day and 22-28° C. during the night. Nutrients and water were added on a regular basis and supplemental lighting was provided with overhead metal halide 1000-Watt lamps as necessary. The oilseed rape (canola) plants were utilized for testing when they reached the third or fourth true leaf stage. The weed species were utilized at the fourth true leaf stage.
(§2) A weighed amount, determined by the highest rate to be tested, of each test compound was dissolved in 4 mL of a 97:3 v/v mixture of acetone and DMSO to obtain concentrated stock solutions. […] The concentrated stock solutions obtained were diluted with 20 mL of an aqueous mixture containing acetone, water and Agri-Dex crop oil concentrate, in a 16.7:82.1:1.25 v/v ratio to obtain spray solutions containing the highest application rates. Additional application rates were obtained by serial dilution of 12 mL of the high rate solution into a solution containing 2 mL of 97:3 v/v mixture of acetone and DMSO and 10 mL of an aqueous mixture containing acetone, water and Agri-Dex crop oil concentrate, in a 16.7:82.1:1.25 v/v ratio to obtain ½×, ¼×, ⅛× and 1/16× rates of the high rate. Compound requirements are based upon a 12 mL application volume at a rate of 187 L/ha. Formulated compounds were applied to the plant material with an overhead Mandel track sprayer equipped with 8002E nozzles calibrated to deliver 187 L/ha over an application area of 0.503 m^2 at a spray height of 18 inches (43 cm) above the average plant canopy height. Control plants were sprayed in the same manner with the solvent blank.
(§3) The treated plants and control plants were placed in a greenhouse as described above and watered by sub-irrigation to prevent wash-off of the test compounds. After 21 d, the condition of the test plants as compared with that of the untreated plants was determined visually and scored on a scale of 0 to 100 percent where 0 corresponds to no injury and 100 corresponds to complete kill.
(§4) By applying the well-accepted probit analysis as described by J. Berkson in Journal of the American Statistical Society 1953, 48, 565, and by D. Finney in “Probit Analysis” Cambridge University Press (1952), the above data can be used to calculate GR20 and GR80 values, which are defined as growth reduction factors that correspond to the effective dose of herbicide required to kill or control 20 percent or 80 percent, respectively, of a target plant.

Test [2] concerns wild buckwheat (Polygonum convululus). Briefly: General postemergence herbicidal activity, wild buckwheat. The conditions noted are these: post-emergence, 336 h, 70 g ai/ha, postemergence, after 14 d, 0 = no injury, 100 = complete kill, read-out: POLCO % Visual Injury. In a few lines: (§5)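 Greenhouse plants at first to second true leaf stage sprayed overhead at 187 L/ha in acetone/DMSO with crop oil concentrate and surfactant, at a high rate plus ½× to 1/16× serial dilutions. Injury rated visually after 14 d against solvent-blank controls, 0 (none) to 100% (complete kill).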

Test [3] has as its system purple deadnettle (Lamium purpureum). Nature of the test: Postemergence herbicidal activity in oilseed rape (canola), purple deadnettle. The note with it: oilseed rape (canola) test, visual rating after 21 d, probit analysis, dose to kill or control 80 percent. Also on record: unit not given here. As to the method:
as §1, §2, §3, §4

For test [4], the system named is velvetleaf (Abutilon theophrasti). Nature of the test: General postemergence herbicidal activity, velvetleaf. The note with it: post-emergence, 336 h, 70 g ai/ha, postemergence, after 14 d, 0 = no injury, 100 = complete kill, read-out: ABUTH % Visual Injury. A digest of the protocol: as §5
Test [5] has as its system corn (Zea mays). Nature of the test: General postemergence herbicidal activity, corn. The conditions noted are these: post-emergence, 336 h, 70 g ai/ha, postemergence, after 14 d, 0 = no injury, 100 = complete kill, read-out: ZEAMX % Visual Injury. In a few lines: as §5

Molecules are shown by their SMILES.

As to `CONC(=O)c1nc(-c2ccc(Cl)c(OC)c2F)cc(N)c1Cl` [Compound 2, 4-Amino-3-chloro-6-(4-chloro-2-fluoro-3-methoxyphenyl)-N-methoxypicolinamide], the “BRSNW GR20” value in test [1] is reported as over 70. For the same molecule, the pest or weed control at 70 g/ha in test [2] and in test [4] was 100% each time. For the same molecule, the “LAMPU GR80” value in test [3] is listed as under 4.38. Further, the plant injury at 70 g/ha in test [5] came to 10%.

For `COc1c(Cl)ccc(-c2cc(N)c(Cl)c(C(=O)NOCC(C)C)n2)c1F` [Compound 1, 4-amino-3-chloro-6-(4-chloro-2-fluoro-3-methoxyphenyl)-N-(2-methylpropoxy)picolinamide], the “BRSNW GR20” value in test [1] is listed as over 70. Besides, the pest or weed control at 70 g/ha in test [2] and in test [4] was 100% each time. In test [3], the “LAMPU GR80” value is given as under 4.38. In addition, the plant injury at 70 g/ha in test [5] was 0%.

Source of the values: patent publication US20130324412A1, “N-ALKOXYAMIDES OF 6-(SUBSTITUTED PHENYL)-4-AMINOPICOLINATES AND 2-(SUBSTITUTED PHENYL)-6-AMINO-4-PYRIMIDINECARBOXYLATES AND THEIR USE AS SELECTIVE HERBICIDES FOR CROPS” (DOW AGROSCIENCES LLC, priority 2009, published 2013).
